Where two headings read alike, the source gives them in different places.
Legend:
[1] = tested on: L. major (FV1) promastigotes; assay: Antipromastigote resazurin assay, L. major (FV1) wild type; assay type: cell-based, Leishmania major; settings: for inhibition of growth at 10000 µM / EC50: Leishmania major; for EC50 / antileishmanial activity: secondary dose response; for EC50: L. major (FV1), read-out: EC50 against L. major promastigotes
[2] = target: T1, LmjIPCS (inositol phosphorylceramide synthase from L. major) (Leishmania major, UniProt E9AFX2); assay: biochemical; assay type: biochemical
T1 sequence (E9AFX2 1-338): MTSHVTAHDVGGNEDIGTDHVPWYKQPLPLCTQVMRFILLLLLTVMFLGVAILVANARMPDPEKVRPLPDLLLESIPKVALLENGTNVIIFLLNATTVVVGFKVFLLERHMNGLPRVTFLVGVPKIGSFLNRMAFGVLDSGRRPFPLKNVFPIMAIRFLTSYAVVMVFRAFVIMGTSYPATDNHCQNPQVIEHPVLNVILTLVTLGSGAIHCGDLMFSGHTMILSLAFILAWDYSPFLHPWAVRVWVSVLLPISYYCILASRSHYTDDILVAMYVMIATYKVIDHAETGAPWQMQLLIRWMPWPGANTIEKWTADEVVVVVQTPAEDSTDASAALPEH

[3] = NINDS set screen against L. major promastigotes, single concentration printed as 10mM
[4] = NINDS set screen, single concentration printed as 20mM
[5] = L. major promastigotes, dose response

| Molecule | 10mM inhibition L. major [1, 3] [%] | 20mM inhibition LmjIPCS [2] [%] | 20mM inhibition LmjIPCS [2, 4] [%] | further results |
| --- | --- | --- | --- | --- |
| Cc1cc(N)c2ccccc2[n+]1CCCCCCCCCC[n+]1c(C)cc(N)c2ccccc21 | <5 | 72 | – | – |
| CCN1C[C@]2(COC)[C@H](O)C[C@H](OC)[C@@]34[C@@H]5C[C@@]6(O)[C@H](OC(=O)c7ccccc7)[C@@H]5[C@@](OC(C)=O)([C@@H]([C@H](OC)[C@H]23)[C@@H]14)[C@@H](O)[C@@H]6OC [ACONITINE] | <5 | 97 | – | – |
| CCN(CCCc1ccccc1)CCCc1ccccc1 [ALVERINE] | <5 | – | 70 | – |
| CN(C)CCC=C1c2ccccc2CCc2ccccc21 [AMITRIPTYLINE] | <5 | 82 | – | – |
| O=C1c2c(O)cccc2Cc2cccc(O)c21 [ANTHRALIN] | <5 | – | 70 | – |
| CN1[C@@H]2CC[C@H]1C[C@@H](OC(c1ccccc1)c1ccccc1)C2 [BENZTROPINE] | – | – | – | 10mM inhibition L. major [1]: <5% |
| CCCC1O[C@@H]2C[C@H]3[C@@H]4CCC5=CC(=O)C=C[C@]5(C)[C@H]4[C@@H](O)C[C@]3(C)[C@]2(C(=O)CO)O1 (some centres unmarked) [BUDESONIDE] | <5 | – | 79 | – |
| COc1ccccc1OCCNCC(O)COc1cccc2[nH]c3ccccc3c12 (centres unmarked) [CARVEDILOL] | <5 | 73 | – | – |
| CCCCCCCCCCCCCCCC[N+](C)(C)C [CETRIMONIUM] | <5 | 75 | – | – |
| CC1=C2C(=CO[C@H](C)[C@H]2C)C(O)=C(C(=O)O)C1=O [CITRININ] | <5 | 76 | – | – |
| CC(C)NC[C@@H](O)COc1cccc2ccccc12 [DEXPROPRANOLOL] | – | – | – | 10mM inhibition L. major [1]: <5% |
| C[C@]12CC[C@@H]3c4ccc(O)cc4CC[C@H]3[C@@H]1CC[C@@H]2OC(=O)CCC1CCCC1 [ESTRADIOL CYPIONATE] | <5 | 83 | – | – |
| CCC(=O)O[C@H]1CC[C@H]2[C@@H]3CCc4cc(O)ccc4[C@H]3CC[C@]12C [ESTRADIOL PROPIONATE] | <5 | – | 74 | – |
| CCCCC(CC)CN1CN(CC(CC)CCCC)CC(C)(N)C1 (centres unmarked) [HEXETIDINE] | <5 | – | 85 | – |
| CN(C)CCCN1c2ccccc2CCc2ccccc21 [IMIPRAMINE] | <5 | – | – | – |
| CNCCCC12CCC(c3ccccc31)c1ccccc12 [MAPROTILINE] | – | – | – | 10mM inhibition L. major [1]: <5% |
| CN1CCc2c(c3ccccc3n2Cc2ccccc2)C1 [MEBHYDROLIN] | <5 | – | 72 | – |
| Cc1cccc(CN2CCN(C(c3ccccc3)c3ccc(Cl)cc3)CC2)c1 (centres unmarked) [MECLIZINE] | <5 | 78 | – | – |
| Clc1ccc(COC(Cn2ccnc2)c2ccc(Cl)cc2Cl)c(Cl)c1 (centres unmarked) [MICONAZOLE] | – | – | – | 10mM inhibition L. major [1]: <5% |
| NC[C@@H]1O[C@H](O[C@H]2[C@@H](O)[C@H](O[C@@H]3[C@@H](O)[C@H](N)C[C@H](N)[C@H]3O[C@H]3O[C@H](CN)[C@@H](O)[C@H](O)[C@H]3N)O[C@@H]2CO)[C@H](N)[C@@H](O)[C@@H]1O [NEOMYCIN] | <5 | – | 88 | – |
| CO[C@]12C[C@@H](COC(=O)c3cncc(Br)c3)CN(C)[C@@H]1Cc1cn(C)c3cccc2c13 [NICERGOLINE] | <5 | 80 | – | – |
| CNCCC=C1c2ccccc2CCc2ccccc21 [NORTRIPTYLINE] | – | 81 | – | 10mM inhibition L. major [1]: <5% |
| Cc1cc(C(C)(C)C)c(O)c(C)c1CC1=NCCN1 [OXYMETAZOLINE] | <5 | – | 75 | – |
| CC(C)=CCc1c2c(c3occ(-c4ccc(O)c(O)c4)c(=O)c3c1O)C=CC(C)(C)O2 [POMIFERIN] | <5 | – | 73 | – |
| CCCCOc1ccc(OCCCN2CCOCC2)cc1 [PRAMOXINE] | <5 | 71 | – | – |

| Molecule | 10mM inhibition L. major [1, 3] [%] | 20mM inhibition LmjIPCS [2] [%] | 20mM inhibition LmjIPCS [2, 4] [%] | further results |
| --- | --- | --- | --- | --- |
| CN(C)CCCN1c2ccccc2Sc2ccccc21 [PROMAZINE] | <5 | 77 | – | – |
| CC(CN1c2ccccc2Sc2ccccc21)N(C)C (centres unmarked) [PROMETHAZINE] | <5 | – | 78 | – |
| CCCc1cc(=O)[nH]c(=S)[nH]1 [PROPYLTHIOURACIL] | – | 73 | – | 10mM inhibition L. major [1]: <5% |
| C=CC1=C(C)c2cc3[nH]c(cc4nc(cc5[nH]c(cc1n2)c(C)c5CCC(=O)O)C(CCC(=O)O)=C4C)c(C)c3C=C [PROTOPORPHYRIN IX] | <5 | – | 77 | – |
| CCc1nc(N)nc(N)c1-c1ccc(Cl)cc1 [PYRIMETHAMINE] | <5 | – | 77 | – |
| COC1=C[C@@H](C)[C@@H]2C[C@H]3OC(=O)C[C@H]4C(C)=C(OC)C(=O)[C@H]([C@@]2(C)C1=O)[C@@]34C [QUASSIN] | – | – | 70 | inhibition of growth at 10000 µM [1, 3]: < 5% |
| C=C[C@H]1C[N@@]2CC[C@H]1C[C@H]2[C@H](O)c1ccnc2ccc(OC)cc12 [QUININE] | <5 | 70 | – | – |
| CC(C)CC(N(C)C)C1(c2ccc(Cl)cc2)CCC1 (centres unmarked) [SIBUTRAMINE] | <5 | 74 | – | – |
| [H]/N=C(/NCCCCC)N/N=C/c1c[nH]c2ccc(OC)cc12 [TEGASEROD] | – | – | 71 | inhibition of growth at 10000 µM [1, 3]: < 5% |
| CC(CN(C)C)CN1c2ccccc2Sc2ccccc21 (centres unmarked) [TRIMEPRAZINE] | <5 | 71 | – | – |
| CCOC(=O)C1=C(COCCN)NC(C)=C(C(=O)OC)C1c1ccccc1Cl (centres unmarked) [amlodipine 2, amlodipine, reference compound] | 62 | 80 | – | ED50 vs L. major [1, 5]: 1910 µM; EC50 [1]: > 1 µM; IC50 [2]: 3 µM; LmjIPCS inhibition ([2]; secondary dose response): confirmed |
| CN(C)CCCN1c2ccccc2Sc2ccc(Cl)cc21 [chlorpromazine 3, chlorpromazine, reference compound] | 76 | 88 | – | ED50 vs L. major [1, 5]: 9800 µM; EC50 [1]: > 1 µM; IC50 [2]: 4.7 µM; LmjIPCS inhibition ([2]; secondary dose response): confirmed |
| CCN(CC)CCOc1ccc(C(=C(Cl)c2ccccc2)c2ccccc2)cc1 [clomiphene 4, clomiphene, reference compound] | – | – | – | 10mM inhibition L. major [1]: 65%; ED50 vs L. major [1]: 6570 µM |
| CN(C)CCC=C1c2ccccc2COc2ccccc21 [doxepin 5, doxepin, reference compound] | – | – | – | 10mM inhibition L. major [1]: 44%; ED50 vs L. major [1]: 30000 µM |
| CC(NCCC(c1ccccc1)c1ccccc1)c1ccccc1 (centres unmarked) [fendiline 6, fendiline, reference compound] | 74 | – | 71 | ED50 vs L. major [1, 5]: 7640 µM; EC50 [1]: > 1 µM; IC50 [2]: 4.22 µM; LmjIPCS inhibition ([2]; secondary dose response): confirmed |
| Fc1ccc(C(c2ccc(F)cc2)N2CCN(C/C=C/c3ccccc3)CC2)cc1 [flunarizine 7, flunarizine, reference compound] | – | – | – | 10mM inhibition L. major [1]: 56%; ED50 vs L. major [1]: 1730 µM |
| N=C1C=CC(=C(c2ccc(N)cc2)c2ccc(N)cc2)C=C1 [pararosaniline 8, pararosaniline] | 75 | 78 | – | ED50 vs L. major [1, 5]: 9780 µM; antileishmanial activity ([1]; L. major promastigotes): poor antileishmanial activity; IC50 ([2]; dose response, read-out: IC50 vs LmjIPCS): > 100 µM; IC50 against LmjIPCS ([2]; secondary dose response, commercially sourced samples): could not be determined |
| O=c1[nH]c2ccccc2n1C1CCN(CCCC(c2ccc(F)cc2)c2ccc(F)cc2)CC1 [pimozide 10, pimozide, reference compound] | 56 | 77 | – | ED50 vs L. major [1, 5]: 22900 µM; EC50 [1]: > 1 µM; IC50 [2]: 4.14 µM; LmjIPCS inhibition ([2]; secondary dose response): confirmed |
| CN1CCN(CCCN2c3ccccc3Sc3ccc(Cl)cc32)CC1 [prochlorperazine edisylate 11, prochlorperazine edisylate, reference compound] | – | – | – | 10mM inhibition L. major [1]: 11%; ED50 vs L. major [1]: 12900 µM |
| CC(C)NCC(O)COc1cccc2ccccc12 (centres unmarked) [propranolol 12, propranolol, reference compound] | – | – | – | 10mM inhibition L. major [1]: 84%; ED50 vs L. major [1]: 4910 µM |
| CN[C@H]1CC[C@@H](c2ccc(Cl)c(Cl)c2)c2ccccc21 [sertraline 13, sertraline, reference compound] | – | – | – | ED50 vs L. major [1]: 14580 µM |
| Cc1nnc(NS(=O)(=O)c2ccc(N)cc2)s1 [sulfamethizole 14, sulfamethizole, reference compound] | 68 | 77 | – | ED50 vs L. major [1, 5]: 39600 µM; antileishmanial activity ([1]; L. major promastigotes): poor antileishmanial activity; IC50 [2]: > 100 µM; IC50 against LmjIPCS [2]: could not be determined |
| CCCCCCCCNC(C)C(O)c1ccc(SC(C)C)cc1 (centres unmarked) [suloctidil 15, suloctidil, reference compound] | 74 | – | 81 | ED50 vs L. major [1, 5]: 1330 µM; EC50 [1]: > 1 µM; IC50 [2]: 3.67 µM; LmjIPCS inhibition ([2]; secondary dose response): confirmed |
| SPIRAMYCIN | – | – | – | 20mM inhibition LmjIPCS ([2]; single concentration 20mM as printed, screening of NINDS set, sheet Screen 1): 10% |

Source: article PMC7802075 (ACS Infectious Diseases, 2020)
